Test results published in US20090221642A1, “MUSCARINIC RECEPTOR AGONISTS, COMPOSITIONS, METHODS OF TREATMENT THEREOF, AND PROCESSES FOR PREPARATION THEREOF-176” (AstraZeneca AB, priority 2008, published 2009).
pEC50: −log10 of the molar value.

Target: T1, cloned human M4 receptor (human Muscarinic receptor subtype 4) (Homo sapiens, UniProt P08173)
T1 construct: purchased Perkin-Elmer RBHM4M; host or cells: Chinese hamster ovary cells (CHO) membranes
T1 sequence (P08173 1-479): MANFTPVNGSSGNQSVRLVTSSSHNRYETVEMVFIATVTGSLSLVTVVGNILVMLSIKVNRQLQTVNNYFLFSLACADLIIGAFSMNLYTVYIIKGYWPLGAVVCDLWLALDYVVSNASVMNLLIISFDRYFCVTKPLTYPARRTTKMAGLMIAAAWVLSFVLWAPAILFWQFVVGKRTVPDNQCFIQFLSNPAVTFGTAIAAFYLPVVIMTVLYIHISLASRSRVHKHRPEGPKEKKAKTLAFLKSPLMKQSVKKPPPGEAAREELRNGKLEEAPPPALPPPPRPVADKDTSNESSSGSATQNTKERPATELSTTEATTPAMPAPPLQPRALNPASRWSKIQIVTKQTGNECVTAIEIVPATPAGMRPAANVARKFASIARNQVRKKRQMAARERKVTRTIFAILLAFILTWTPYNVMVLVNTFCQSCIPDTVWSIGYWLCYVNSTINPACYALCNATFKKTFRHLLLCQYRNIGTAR
Experiment: hM4 receptor GTPγS binding
Assay type: biochemical
Settings: CHO cell membranes expressing hM4; [35S]GTPγS binding; read-out: hM4 EC50
In short: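 Membranes from CHO cells expressing cloned human M4, with SPA beads, 20 µM GDP and 0.4 nM [35S]GTPγS in HEPES buffer pH 7.4, incubated 60 min at room temperature. Antagonism measured as reversal of 10 µM acetylcholine stimulation; 10-point, threefold dilution curves fitted sigmoidally to give EC50, IC50 and Emax.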

pEC50: 4.47
SMILES: CC1(N2CCC(n3c(=O)[nH]c4ccccc43)CC2)CCN(C(=O)OCCF)C1 (single isomer, unassigned) [Example 32, 2-fluoroethyl 3-methyl-3-(4-(2-oxo-2,3-dihydro-1H-benzo[d]imidazol-1-yl)piperidin-1-yl)pyrrolidine-1-carboxylate]
